# From patent US5179093A, “Quinoline-diones” (Schering Corporation, priority 1991, dated 1993)
# What was measured:
# HSV-2, strain MS [1] = test: Therapeutic guinea pig model of HSV infection (genital lesions); type: in vivo
# Method: The in vivo assessment of anti-HSV efficacy was determined in the prophylactic guinea pig model of HSV infection described by Stanberry et al (1982) The Journal of Infectious Diseases-vol. 146, No. 3, pages 397-404, which is hereby incorporated by reference. Dosing of guinea pigs was comprised of an initial treatment with test compound given 24 hours prior to virus infection and subsequent administration of the compound every eight hours (T.I.D.) for a total of 10 days. Test compounds were administered subcutaneously in 0.5% buffered methyl cellulose at a dose of 60 mg per kg body weight of the animal. Animals were monitored daily for the development of genital lesions and neurological symptomology, both of which were recorded and compared to the results obtained with parallel groups which received placebo or acyclovir treatment. Efficacy was evaluated for each compound by scoring the ability of the compound to ameliorate genital lesions produced by infection with HSV-2, strain MS, expressed as Activity Coefficients. The Activity Coefficients. were calculated as follows: The ability of a test compound to ameliorate lesions was plotted graphically with the number of days being on one axis, and the number of lesions being on the other axis. The area under the resultant curve was put in the numerator of a fraction with the denominator either being the area under a similar curve where placebo was employed(EXP/PL), or the area under the curve where acyclovir was employed (EXP/ACV). Thus (Exp/PL) is the ratio of test compound to placebo. (Exp/ACV) is the ratio of test compound to acyclovir. […] In the therapeutic guinea pig model, dosing of guinea pigs started 24 hours after they were infected with the virus. Subsequent administration of the test compound was done every eight hours for a total of ten days. Activity coefficients were calculated in the same manner as described for the prophylactic guinea pig model above.
# HSV-2 (strain MS) = test: Transient expression of beta galactosidase in transfected HeLa cells superinfected with HSV-2 (HSV-β-GAL assay); type: cell-based; conditions: Human alphaherpesvirus 2, plasmid pON 245^ori-, moi=5 pfu/cell, 24 hours, read-out: ANTI-HSV ACTIVITY HSV-β-GAL ASSAY IC50
# Method: HeLa and Vero cell cultures were maintained in Eagles Minimal Essential Medium (EMEM) which was supplemented with glutamine, penicillin, streptomycin and 10% fetal calf serum (10% EMEM). Stock cultures of HSV-2 (strain MS available from ATCC VR-540) were grown in and harvested from Vero cells. Viral stocks were titered in Vero cells according to established procedures.
# Plasmid pON 245^ori- contains the promoter of the HSV-1 thymidine kinase (tk) gene located immediately 5' of the E. coli lac Z gene. In this arrangement, the tk promoter controls transcription from the bacterial gene in transient expression assays. Additionally, an SV40 polyadenylation signal is present at the 3' end of the lac Z gene to allow for the efficient translation of the mRNA in eucaryotic cells. The expression of beta galactosidase in a transient assay using pON 245^ori- is dependent upon superinfection of the transfected cells with HSV. […] For example see U.S. application Ser. No. 07/435,491 filed Sep. 5, 1989, the disclosure of which is incorporated herein by reference thereto.
# HeLa cells were seeded into 96 well microtiter plates and allowed to grow to 80% confluency (approximately 35,000 cells/well). One half microgram of plasmid pON 245^ori- DNA was introduced into the cells of each well by the […] precipitation technique (Grahman and Van der Eb, 1973). Four to six hours later, the cells were rinsed with hank's Balanced Salt Solution (HBSS), overlaid with 10% EMEM and incubated at 37° C. At 24 hrs post-transfection, cells were rinsed, overlaid with 10% EMEM again and re-incubated at 37° C. At 48 hrs post-transfection, cells were rinsed and overlaid with either EMEM containing 2% fetal calf serum (2% EMEM), 2% EMEM containing HSV-2 (strain MS, Multiplicity of Infection [moi]=5 pfu/cell) or 2% EMEM containing HSV-2 and the appropriate concentration of Schering compound to be tested. Twenty-four hours later, the cells were harvested and assayed for beta galactosidase activity as described below.
# All determinations of beta galactosidase activity were performed in 96 well microtiter plates. The intracellular level of beta galactosidase activity in each well was determined from cell lysates of the monolayer cultures. Aliquots were assayed by incubation in the presence of beta galactosidase substrate, 4-methylumbelliferyl-β-D-galactoside (MUG, 125 ug/ml, Sigma), for 2 hours. The generation of fluorescent product was quantified on a Microfluor microfluorimeter (Dynatech) after addition of 0.1M glycine, pH 10.3 (Spaete and Mocarski, 1985). The inhibitory activity of a compound was plotted versus the concentration and an IC50 value (the concentration of compound required to reduce beta glactosidase expression by 50%) was obtained for each compound tested.
# [2] = Compound toxicity assay: inhibition of HeLa cell translation (^3 H-LEU assay); type: cell-based; conditions: human; HeLa cells, overnight (24 hours) treatment, tritiated leucine incorporation; read-out: CYTOTOXICITY ^3 H--LEU ASSAY IC50
# Method: HeLa cells were treated with inhibitory compound for 24 hours, after which levels of translational activity were assayed.
# For assay of translational activity, HeLa cultures were grown to 80% confluency in 96 well microtiter plates, treated with appropriate concentrations of compound in 2% EMEM during an overnight incubation at 37° C., then rinsed with HBSS and overlaid with […] of 2% EMEM containing 8 uCi of tritiated leucine (^3 H-LEU, 141 Ci/mMol, Amersham Corp., Arlington Heights Ill.). After 1 hr incubation at 36.5° C., the cells were rinsed twice with phosphate buffered saline (PBS) and lysed in 400 ul/well of 1×PBS, 0.5% sodium dodecyl sulphate (SDS). After a 10 minute incubation at 36.5° C., the contents of the well were transferred to a well in a Millititer HA microfiltration plate (Millipore Corp., Bedford, MA). The TCA insoluble proteins were precipitated onto the filter disc by a 10 minute fixation with 5% TCA, followed by filtration under vacuum and three 10 minute rinses with 95% ethanol. The filters were dried at room temperature, cut from the milltitier plate and transferred to scintillation vials. TCA precipitable counts were assayed in 5 ml of Scintisol (Isolab, Akron, Ohio). The inhibitory activity of a compound was plotted versus the concentration and an IC50 value (that concentration of the compound required to decrease cellular translational activity by 50%) was derived for each compound.
# HSV-2, strain MS [3] = test: Prophylactic guinea pig model of HSV infection (genital lesions); type: in vivo; conditions: 60 mpk × 3/24 hr, sc
# Method: The in vivo assessment of anti-HSV efficacy was determined in the prophylactic guinea pig model of HSV infection described by Stanberry et al (1982) The Journal of Infectious Diseases-vol. 146, No. 3, pages 397-404, which is hereby incorporated by reference. Dosing of guinea pigs was comprised of an initial treatment with test compound given 24 hours prior to virus infection and subsequent administration of the compound every eight hours (T.I.D.) for a total of 10 days. Test compounds were administered subcutaneously in 0.5% buffered methyl cellulose at a dose of 60 mg per kg body weight of the animal. Animals were monitored daily for the development of genital lesions and neurological symptomology, both of which were recorded and compared to the results obtained with parallel groups which received placebo or acyclovir treatment. Efficacy was evaluated for each compound by scoring the ability of the compound to ameliorate genital lesions produced by infection with HSV-2, strain MS, expressed as Activity Coefficients. The Activity Coefficients. were calculated as follows: The ability of a test compound to ameliorate lesions was plotted graphically with the number of days being on one axis, and the number of lesions being on the other axis. […]
# herpes virus [4] = conditions: added to lidocaine or lidocaine hydrochloride; Haines et al.; cited from earlier work
# HSV-1 = conditions: U.S. Pat. No. 4,757,088; cited from earlier work
# HSV-2 = conditions: U.S. Pat. No. 4,757,088; cited from earlier work
# herpes virus [5] = conditions: U.S. Pat. No. 4,757,088; cited from earlier work
# HSV = conditions: according to Haines et al.; cited from earlier work
structure (smiles),measurement,setting,value
"Nc1nc2c(ncn2COCCO)c(=O)[nH]1 [ACV, 9-[(2-hydroxyethoxy)methyl]guanine, reference compound]",efficacy of acyclovir in the therapeutic study,"HSV-2, strain MS [1]; therapeutic study with Example 45",not efficaceous
"O=C1C(=CNCc2ccccc2)C(=O)N(Cc2ccccc2)c2ccccc21 [EX. 23, (E,Z)1-Benzyl-3-Benzylaminomethylene-Quinolin-2,4(1H)-Dione]",IC50,HSV-2 (strain MS),5 µg/mL
same,CC50 at 24 h,[2],> 100 µg/mL
same,Activity Coefficient (Exp/ACV),"HSV-2, strain MS [3]; lesion score AUC days 1-10, ratio test compound to acyclovir",4.05 ± 2.21
same,Activity Coefficient (Exp/PL),"HSV-2, strain MS [3]; lesion score AUC days 1-10, ratio test compound to placebo",0.67 ± 0.03
"O=C1C(=CNCc2ccccc2)C(=O)N(Cc2ccccc2)c2ccsc21 [EX. 45, (E,Z) 4-benzyl-6-benzylaminomethylene-thieno[3,2-b]pyridine-5,7(4H,6H)-dione]",IC50,HSV-2 (strain MS),4 µg/mL
same,CC50 at 24 h,[2],40 µg/mL
same,Activity Coefficient (Exp/PL),"HSV-2, strain MS [1]; 30 mpk × 3/24 hr, sc, therapeutic, lesion score AUC days 1-10, ratio test compound to placebo",0.71
same,Activity Coefficient (Exp/ACV),"HSV-2, strain MS [1]; 30 mpk × 3/24 hr, sc, therapeutic, lesion score AUC days 1-10, ratio to acyclovir, ACV was not efficaceous in this study",0.93
CC(C)(CO)[C@@H](O)C(=O)NCCCO [dexpanthenol],enhancement of antiviral activity,herpes virus [4],significantly enhances the antiviral activity
"CCN(CC)CC(=O)Nc1c(C)cccc1C [lidocaine, 2-(diethylamino)-N-(2,6-dimethylphenyl)acetamide]",antiviral activity in cell culture against HSV-1,HSV-1,antiviral agent in cell culture against HSV-1 and HSV-2
same,antiviral activity in cell culture against HSV-2,HSV-2,antiviral agent in cell culture against HSV-1 and HSV-2
same,ability to treat herpes virus infections of mammals,herpes virus [5],able to treat herpes virus infections of mammals
same,treatment of HSV oral and genital lesions in humans,HSV,particularly effective
CC(C)(CO)[C@@H](O)C(=O)NCCC(=O)O [pantothenic acid],enhancement of antiviral activity,herpes virus [4],significantly enhances the antiviral activity
